In PubChem BioAssay (NCI) one finds TGI data, which are given here for seven compounds.

Among the test systems are A498 renal; CCRF-CEM leukemia; COLO 205 colon; DU-145 prostate; HCT-15 colon; KM12 colon; M14 melanoma; MDA-MB-231 breast; MDA-N; NCI-H460 lung; NCI/ADR-RES ovarian; OVCAR-5 ovarian; PC-3 prostate; RPMI-8226 leukemia; SF-539 CNS; SR leukemia; T-47D breast; UACC-62 melanoma; MALME-3M melanoma; NCI-H522 lung.
Assay in all cases: growth of human tumour cells (NCI), 48 h

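Briefly, cells in 96-well plates were exposed to five compound concentrations for 48 h, and endpoints were estimated by linear interpolation. TGI marks complete inhibition of growth.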

For the compound `N=C(c1ccc2ccccc2c1)c1ccccc1Cc1ccccc1`, the TGI is over 100 µM in the test on A498 renal; 82.8 µM in the test on CCRF-CEM leukemia; over 100 µM with COLO 205 colon; 96.6 µM in the test on DU-145 prostate; over 100 µM in the test on HCT-15 colon; over 100 µM in the test on KM12 colon. The TGI in the test on M14 melanoma, in the test with MDA-MB-231 breast, in the test on MDA-N, in the test with NCI-H460 lung, in the test on NCI/ADR-RES ovarian and in the test with OVCAR-5 ovarian was over 100 µM each time. Moreover, the TGI in the test on PC-3 prostate is over 100 µM; in the test on RPMI-8226 leukemia it was over 100 µM; with SF-539 CNS, over 100 µM; in the test with SR leukemia, over 100 µM; in the test with T-47D breast it was 55.7 µM; with UACC-62 melanoma, over 100 µM.
With `CC(=O)N1OC(C)CC1Nc1ccc(Br)cc1` (configuration not stated), the TGI in the test on A498 renal, in the test with CCRF-CEM leukemia, with DU-145 prostate, in the test on HCT-15 colon, with KM12 colon and in the test with M14 melanoma was over 100 µM in each case. Also, the TGI in the test on MALME-3M melanoma, in the test on MDA-N, with NCI-H460 lung, with NCI/ADR-RES ovarian, in the test on OVCAR-5 ovarian and in the test on PC-3 prostate was over 100 µM in each case. Besides, the TGI in the test on SF-539 CNS, with SR leukemia, in the test with T-47D breast and with UACC-62 melanoma was over 100 µM in each case.
On to `COc1ccc(C(=O)Cn2c(C(=O)/C=C/c3ccco3)nc3ccccc32)cc1`, for which the TGI is over 100 µM with A498 renal; over 100 µM in the test with CCRF-CEM leukemia; 71.8 µM with COLO 205 colon; over 100 µM in the test with DU-145 prostate; over 100 µM with HCT-15 colon; over 100 µM with KM12 colon. In addition, the TGI was over 100 µM in the test with M14 melanoma; over 100 µM in the test with MALME-3M melanoma; over 100 µM in the test with MDA-MB-231 breast; over 100 µM in the test with MDA-N; over 100 µM in the test with NCI-H460 lung; 75.2 µM in the test on NCI/ADR-RES ovarian. Further, the TGI was over 100 µM with OVCAR-5 ovarian; over 100 µM in the test on PC-3 prostate; 88.7 µM with RPMI-8226 leukemia; over 100 µM in the test on SF-539 CNS; over 100 µM in the test with SR leukemia; over 100 µM with T-47D breast. The TGI in the test with UACC-62 melanoma was over 100 µM.
On to `O=C1C(N2CCNCC2)=C(Cl)C(=O)c2ncccc21`, for which the TGI in the test on CCRF-CEM leukemia, in the test on COLO 205 colon, in the test on DU-145 prostate, with HCT-15 colon, in the test on KM12 colon and with M14 melanoma was over 10 µM each time. The TGI with MALME-3M melanoma, in the test on MDA-MB-231 breast, with MDA-N, with NCI-H460 lung, in the test on OVCAR-5 ovarian and with PC-3 prostate was over 10 µM in each case. Moreover, the TGI in the test on RPMI-8226 leukemia, in the test on SF-539 CNS, in the test with SR leukemia, in the test with T-47D breast and in the test on UACC-62 melanoma was over 10 µM in each case.
Regarding `c1ccc2c(c1)nc1n2CCCn2ccnc2-1`, the TGI in the test with A498 renal, in the test with COLO 205 colon, with DU-145 prostate, in the test on HCT-15 colon, with KM12 colon and in the test on M14 melanoma was over 100 µM throughout. For the same compound, the TGI with MALME-3M melanoma, with MDA-MB-231 breast, in the test on MDA-N, with NCI-H460 lung, with NCI-H522 lung and in the test with NCI/ADR-RES ovarian was over 100 µM in each case. Moreover, the TGI in the test on OVCAR-5 ovarian, in the test on PC-3 prostate, in the test with RPMI-8226 leukemia, in the test with SF-539 CNS, with SR leukemia and in the test with T-47D breast was over 100 µM throughout. This compound also displayed a TGI in the test with UACC-62 melanoma of over 100 µM.
As to `C=C(C)C1Cc2c(cc(O)c3c(=O)c4c(oc23)C(O)Oc2cc(OC)c(OC)cc2-4)O1` (configuration not stated), the TGI with A498 renal, in the test on CCRF-CEM leukemia, in the test with COLO 205 colon, in the test on DU-145 prostate, with HCT-15 colon and in the test with KM12 colon was over 10 µM each time. The TGI with M14 melanoma, with MALME-3M melanoma, with MDA-MB-231 breast, in the test on MDA-N, in the test on NCI-H460 lung and in the test with NCI/ADR-RES ovarian was over 10 µM throughout. Besides, the TGI in the test on OVCAR-5 ovarian, in the test on PC-3 prostate, in the test on RPMI-8226 leukemia, in the test on SF-539 CNS, with SR leukemia and with T-47D breast was over 10 µM each time. Moreover, in the test on UACC-62 melanoma, the TGI was over 10 µM.
As to `Cc1c(C)c2c(c(N)c1C#N)C(=O)N(Nc1ccccc1)C2=O`, the TGI in the test with CCRF-CEM leukemia, with COLO 205 colon, in the test with DU-145 prostate, in the test on HCT-15 colon, in the test with KM12 colon and with M14 melanoma was over 100 µM each time. Moreover, the TGI with MALME-3M melanoma, in the test with MDA-MB-231 breast, with MDA-N, in the test on NCI-H460 lung, in the test with NCI-H522 lung and with NCI/ADR-RES ovarian was over 100 µM throughout. For the same compound, the TGI in the test with OVCAR-5 ovarian, in the test on PC-3 prostate, in the test with RPMI-8226 leukemia, with SF-539 CNS, in the test with SR leukemia and with T-47D breast was over 100 µM in each case. The compound also returned a TGI in the test with UACC-62 melanoma of over 100 µM.
